The target of one assay is LCK (Homo sapiens (Human), UniProt P06239). Conditions: read-out: LCK IC50; [ATP]=20 μM, LCK=0.2 nM.
A further assay concerns the target EGFR (Homo sapiens (Human), UniProt P00533). Nature of the assay: biochemical.
In assay [1] the target is Btk (Mus musculus (Mouse), UniProt P35991). Nature of the assay: Btk occupancy in vivo (PBMCs or splenocytes, PCI-33380 labeling). Conditions: 4 hours after dosing, Babc/L mice.
Procedure: For analysis of Btk occupancy in Babc/L mice following oral dosing of compounds after 4 hours. Isolating peripheral blood mononuclear cells (PBMCs) with mouse peripheral blood separation kit (Hao Yang Biological Manufacture CO., LTD, Tianjin) were collected from Babc/L mice (1 ml blood from two mice). Spleens were processed to splenocytes followed by 5 min incubation in red blood cell lysing buffer (from mouse peripheral blood separation kit).
For another assay, the target named is TEC (Homo sapiens (Human), UniProt P42680). Nature of the assay: biochemical.
For assay [2], the target named is T1, BTK (Homo sapiens (Human), UniProt Q06187).
Procedure: (§1) Btk kinase activity was determined using a homogenous time resolved fluorescence (HTRF) methodology. Measurements were performed in a reaction volume of 15 μL using 384-well assay plates. Kinase enzyme, inhibitor, ATP and 1 μM peptide substrate were incubated in a reaction buffer compose of Hepes50 mM (pH7.0), NaN3 0.02%, BSA 0.01%, Orthocanadate 0.1 mM. […] For each compound, enzyme activity as measured at various concentrations of compound, Negative control reactions were performed in the absence of inhibitor in two replicates and eight no enzyme controls were used to determine baseline fluorescence levels.
The target in a further assay is ITK (Homo sapiens (Human), UniProt Q08881). Nature of the assay: biochemical.
In a further assay the target is LYN (Homo sapiens (Human), UniProt P07948). The settings on record: read-out: LYN IC50, [ATP]=20 μM.
Assay [3] has as its target T1, BTK. Nature of the assay: biochemical.
Procedure: as §1

SMILES strings stand for the structures. Read-outs that look alike come from different tables or passages of the source.

Sequence of EGFR (P00533 whole entry, looked up, species assumed): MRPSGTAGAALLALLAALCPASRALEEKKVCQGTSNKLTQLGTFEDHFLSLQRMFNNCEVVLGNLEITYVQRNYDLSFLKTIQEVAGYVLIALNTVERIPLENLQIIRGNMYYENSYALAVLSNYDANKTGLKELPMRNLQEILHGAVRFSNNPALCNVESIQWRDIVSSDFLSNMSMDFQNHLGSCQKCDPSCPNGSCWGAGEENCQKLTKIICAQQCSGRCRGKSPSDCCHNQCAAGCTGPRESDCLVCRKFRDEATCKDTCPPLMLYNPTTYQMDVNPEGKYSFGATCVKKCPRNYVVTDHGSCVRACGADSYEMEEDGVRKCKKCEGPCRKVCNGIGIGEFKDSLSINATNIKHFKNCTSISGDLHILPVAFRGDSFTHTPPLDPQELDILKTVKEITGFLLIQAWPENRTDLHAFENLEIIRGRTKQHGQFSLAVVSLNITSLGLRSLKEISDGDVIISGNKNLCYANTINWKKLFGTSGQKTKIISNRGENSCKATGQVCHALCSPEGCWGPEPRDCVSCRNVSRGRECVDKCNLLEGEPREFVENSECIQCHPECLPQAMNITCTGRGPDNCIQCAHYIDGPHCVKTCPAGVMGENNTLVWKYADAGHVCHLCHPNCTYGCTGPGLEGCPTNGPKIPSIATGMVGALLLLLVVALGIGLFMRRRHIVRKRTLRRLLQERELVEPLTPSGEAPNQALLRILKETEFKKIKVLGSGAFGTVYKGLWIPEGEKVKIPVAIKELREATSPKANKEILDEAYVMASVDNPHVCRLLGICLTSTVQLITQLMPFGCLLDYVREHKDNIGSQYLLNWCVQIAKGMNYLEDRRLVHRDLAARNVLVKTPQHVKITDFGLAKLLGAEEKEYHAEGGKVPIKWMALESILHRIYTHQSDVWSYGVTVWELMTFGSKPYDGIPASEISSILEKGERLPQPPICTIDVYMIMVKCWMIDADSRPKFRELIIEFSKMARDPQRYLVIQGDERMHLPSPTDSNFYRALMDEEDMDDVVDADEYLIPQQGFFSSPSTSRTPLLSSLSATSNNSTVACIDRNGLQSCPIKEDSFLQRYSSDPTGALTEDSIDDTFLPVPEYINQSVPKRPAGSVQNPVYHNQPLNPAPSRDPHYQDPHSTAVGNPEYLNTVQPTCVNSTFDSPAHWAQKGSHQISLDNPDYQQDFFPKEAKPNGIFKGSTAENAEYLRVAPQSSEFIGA
Sequence of LYN (P07948 whole entry, looked up, species assumed): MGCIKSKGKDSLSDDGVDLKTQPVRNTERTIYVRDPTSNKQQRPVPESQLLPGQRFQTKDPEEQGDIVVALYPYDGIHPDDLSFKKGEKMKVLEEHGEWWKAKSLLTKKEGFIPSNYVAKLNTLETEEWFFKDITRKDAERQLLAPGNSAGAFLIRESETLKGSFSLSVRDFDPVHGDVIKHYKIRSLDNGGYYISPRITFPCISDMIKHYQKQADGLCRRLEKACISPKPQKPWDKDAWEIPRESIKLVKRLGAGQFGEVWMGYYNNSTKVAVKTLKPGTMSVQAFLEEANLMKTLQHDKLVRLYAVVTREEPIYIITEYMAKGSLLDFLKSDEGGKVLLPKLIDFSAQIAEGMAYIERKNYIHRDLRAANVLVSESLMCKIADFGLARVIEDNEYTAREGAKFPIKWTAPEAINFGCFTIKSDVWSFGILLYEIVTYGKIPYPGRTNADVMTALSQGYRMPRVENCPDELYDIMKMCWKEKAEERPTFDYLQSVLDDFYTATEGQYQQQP
Sequence of TEC (P42680 whole entry, looked up): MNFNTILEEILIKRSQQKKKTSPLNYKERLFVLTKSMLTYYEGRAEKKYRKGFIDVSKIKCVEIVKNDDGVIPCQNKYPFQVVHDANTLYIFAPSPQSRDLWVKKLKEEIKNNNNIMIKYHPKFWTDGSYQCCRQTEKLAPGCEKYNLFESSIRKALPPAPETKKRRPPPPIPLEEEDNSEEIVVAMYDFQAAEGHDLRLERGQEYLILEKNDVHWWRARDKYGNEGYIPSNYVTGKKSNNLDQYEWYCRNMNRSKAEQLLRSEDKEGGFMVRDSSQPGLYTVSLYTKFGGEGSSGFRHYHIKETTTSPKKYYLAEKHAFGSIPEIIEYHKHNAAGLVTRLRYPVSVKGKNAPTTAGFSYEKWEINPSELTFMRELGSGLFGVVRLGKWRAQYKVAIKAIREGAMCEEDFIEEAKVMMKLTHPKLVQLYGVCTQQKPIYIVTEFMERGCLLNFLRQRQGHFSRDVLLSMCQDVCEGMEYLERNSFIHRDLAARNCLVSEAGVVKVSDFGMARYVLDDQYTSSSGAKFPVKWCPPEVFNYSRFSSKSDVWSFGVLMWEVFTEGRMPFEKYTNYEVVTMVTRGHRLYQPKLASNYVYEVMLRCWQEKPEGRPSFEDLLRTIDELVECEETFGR
Sequence of ITK (Q08881 whole entry, looked up, species assumed): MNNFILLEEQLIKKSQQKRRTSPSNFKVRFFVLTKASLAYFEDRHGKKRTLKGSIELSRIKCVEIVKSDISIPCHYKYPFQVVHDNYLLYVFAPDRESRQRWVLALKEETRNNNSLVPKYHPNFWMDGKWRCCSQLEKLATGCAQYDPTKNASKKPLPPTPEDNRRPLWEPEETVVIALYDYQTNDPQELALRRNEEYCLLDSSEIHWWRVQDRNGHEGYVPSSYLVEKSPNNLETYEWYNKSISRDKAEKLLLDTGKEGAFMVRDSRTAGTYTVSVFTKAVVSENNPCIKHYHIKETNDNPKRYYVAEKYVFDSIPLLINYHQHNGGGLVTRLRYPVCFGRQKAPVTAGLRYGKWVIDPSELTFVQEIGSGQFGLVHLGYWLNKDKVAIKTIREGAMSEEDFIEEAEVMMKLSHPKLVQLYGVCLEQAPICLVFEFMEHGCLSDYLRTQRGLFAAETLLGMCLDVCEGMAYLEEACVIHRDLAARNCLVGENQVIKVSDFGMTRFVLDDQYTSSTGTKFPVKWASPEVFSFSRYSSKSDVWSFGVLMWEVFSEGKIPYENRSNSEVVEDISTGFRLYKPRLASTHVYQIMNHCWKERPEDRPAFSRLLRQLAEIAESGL
T1 sequence (Q06187 whole entry, looked up, species assumed): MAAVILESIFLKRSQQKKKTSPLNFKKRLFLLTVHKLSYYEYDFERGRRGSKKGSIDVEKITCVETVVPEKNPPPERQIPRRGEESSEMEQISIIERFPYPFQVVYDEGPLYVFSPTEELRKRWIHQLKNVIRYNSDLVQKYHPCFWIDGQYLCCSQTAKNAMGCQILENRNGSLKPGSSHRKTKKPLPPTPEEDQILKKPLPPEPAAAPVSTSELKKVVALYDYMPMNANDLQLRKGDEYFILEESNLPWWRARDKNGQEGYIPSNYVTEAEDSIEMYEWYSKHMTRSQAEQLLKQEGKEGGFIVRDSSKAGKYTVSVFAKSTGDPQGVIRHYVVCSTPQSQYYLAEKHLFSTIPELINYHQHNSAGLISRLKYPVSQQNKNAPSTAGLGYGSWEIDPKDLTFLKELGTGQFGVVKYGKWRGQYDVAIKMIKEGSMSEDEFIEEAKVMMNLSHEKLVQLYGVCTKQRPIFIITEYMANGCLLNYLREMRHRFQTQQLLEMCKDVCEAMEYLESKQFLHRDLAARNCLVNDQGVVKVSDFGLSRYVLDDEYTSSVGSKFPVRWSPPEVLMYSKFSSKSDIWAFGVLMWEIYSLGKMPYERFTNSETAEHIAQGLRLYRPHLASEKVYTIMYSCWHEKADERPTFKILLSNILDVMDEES
Sequence of LCK (P06239 whole entry, looked up, species assumed): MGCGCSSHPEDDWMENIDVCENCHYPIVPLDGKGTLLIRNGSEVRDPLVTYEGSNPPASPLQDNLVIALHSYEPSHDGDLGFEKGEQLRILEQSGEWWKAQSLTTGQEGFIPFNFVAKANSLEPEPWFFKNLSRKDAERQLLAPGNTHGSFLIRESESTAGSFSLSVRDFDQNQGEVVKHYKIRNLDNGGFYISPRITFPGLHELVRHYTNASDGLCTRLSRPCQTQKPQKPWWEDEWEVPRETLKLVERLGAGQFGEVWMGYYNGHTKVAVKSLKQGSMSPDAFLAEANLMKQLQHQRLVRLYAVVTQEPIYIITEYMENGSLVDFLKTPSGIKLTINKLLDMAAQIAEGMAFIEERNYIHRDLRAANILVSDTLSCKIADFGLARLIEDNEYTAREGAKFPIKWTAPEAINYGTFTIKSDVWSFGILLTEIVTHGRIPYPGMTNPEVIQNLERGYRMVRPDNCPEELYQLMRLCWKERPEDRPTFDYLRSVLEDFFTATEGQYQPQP
Sequence of Btk (P35991 whole entry, looked up): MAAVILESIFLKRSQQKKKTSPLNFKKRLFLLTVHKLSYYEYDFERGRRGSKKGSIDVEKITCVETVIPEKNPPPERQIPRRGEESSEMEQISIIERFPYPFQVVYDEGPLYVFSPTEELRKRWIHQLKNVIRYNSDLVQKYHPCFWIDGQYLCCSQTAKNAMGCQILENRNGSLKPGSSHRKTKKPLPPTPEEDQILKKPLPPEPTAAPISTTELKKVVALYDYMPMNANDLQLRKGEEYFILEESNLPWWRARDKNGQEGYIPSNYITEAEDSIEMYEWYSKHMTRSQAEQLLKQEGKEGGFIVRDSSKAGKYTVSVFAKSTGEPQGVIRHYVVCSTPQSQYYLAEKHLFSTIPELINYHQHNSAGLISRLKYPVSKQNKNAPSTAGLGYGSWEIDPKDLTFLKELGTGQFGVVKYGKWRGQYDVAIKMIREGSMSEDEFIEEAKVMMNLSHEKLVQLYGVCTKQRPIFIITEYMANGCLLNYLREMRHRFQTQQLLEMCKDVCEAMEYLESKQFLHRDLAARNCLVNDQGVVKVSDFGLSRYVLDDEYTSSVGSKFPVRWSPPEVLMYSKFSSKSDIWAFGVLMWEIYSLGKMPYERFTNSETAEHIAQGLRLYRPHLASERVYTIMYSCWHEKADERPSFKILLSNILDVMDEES
Procedure for LCK: as §1
(§2) For LYN assay, [ATP]=20 μM, LYN=0.12 n M. For LCK assay, [ATP]=20 μM, LCK=0.2 nM.
Procedure for LYN: as §1, §2

Turning to `C=CC(=O)N1CCC[C@@H](c2nc(-c3ccc(Oc4cccc(OC)c4F)cc3)c3cnccn23)C1` [Example 1, (R)-1-(3-(1-(4-(2-fluoro-3-methoxyphenoxy)phenyl)imidazo[1,5-a]pyrazin-3-yl)piperidin-1-yl)prop-2-en-1-one], the IC50 at LCK was over 10 µM; against EGFR it was 0.1 to 1 µM; against TEC it was 0.1 to 1 µM; at BTK [2] (read-out: BTK IC50), under 0.01 µM; at BTK [2] (read-out: BTK Inhibition), under 0.01 µM; on ITK it was 1 to 10 µM. For the same molecule, the IC50 at LYN was over 10 µM. Further, the “Btk occupancy in vivo” value at Btk [1] (5 mg/kg single oral dose) is reported as “full occupancy”.

Regarding `C=CC(=O)N1CCC[C@H]1c1nc(-c2ccc(Oc3cccc(OC)c3F)cc2)c2cnccn12` [Example 30, (S)-1-(2-(1-(4-(2-fluoro-3-methoxyphenoxy)phenyl)imidazo[1,5-a]pyrazin-3-yl)pyrrolidin-1-yl)prop-2-en-1-one], the IC50 on LCK was over 10 µM; against TEC, 0.1 to 1 µM; at BTK [2] (read-out: BTK IC50), under 0.01 µM; at BTK [2] (read-out: BTK Inhibition), under 0.01 µM; on LYN, over 10 µM. In addition, at Btk [1] (5 mg/kg single oral dose), the “Btk occupancy in vivo” value is on record as “full occupancy”.

Take `C=CC(=O)N1CCC[C@H]1c1nc(-c2ccc(OCc3c(F)cccc3F)cc2)c2cnccn12` [Example 136, (S)-1-(2-(1-(4-((2,6-difluorobenzyl)oxy)phenyl)imidazo[1,5-a]pyrazin-3-yl)pyrrolidin-1-yl)prop-2-en-1-one]: the IC50 at LCK was over 10 µM; on EGFR it was 1 to 10 µM; against BTK [3], 0.01 to 0.1 µM; on TEC, 0.1 to 1 µM; on BTK [2] (read-out: BTK IC50), 0.01 to 0.1 µM; at ITK it was 1 to 10 µM. The IC50 on LYN was over 10 µM.

Turning to `C=CC(=O)N1CCC[C@H]1c1nc(-c2ccc(Oc3cccc(F)c3F)cc2)c2cnccn12` [Example 20, (S)-1-(2-(1-(4-(2,3-difluorophenoxy)phenyl)imidazo[1,5-a]pyrazin-3-yl)pyrrolidin-1-yl)prop-2-en-1-one], the IC50 on LCK is over 10 µM; against EGFR, 1 to 10 µM; against TEC, 0.1 to 1 µM; at BTK [2] (read-out: BTK IC50) it was under 0.01 µM; at BTK [2] (read-out: BTK Inhibition) it was under 0.01 µM; on ITK, 1 to 10 µM. The IC50 on LYN is over 10 µM.

Turning to `C=CC(=O)N1CCCC[C@H]1c1nc(-c2ccc(Oc3cccc(OC)c3F)cc2)c2c(C)nccn12` [Example 27, (S)-1-(2-(1-(4-(2-fluoro-3-methoxyphenoxy)phenyl)-8-methylimidazo[1,5-a]pyrazin-3-yl)piperidin-1-yl)prop-2-en-1-one], the IC50 at LCK is over 10 µM; on EGFR, 0.1 to 1 µM; on TEC, 0.1 to 1 µM; on BTK [2] (read-out: BTK IC50) it was under 0.01 µM; on BTK [2] (read-out: BTK Inhibition), under 0.01 µM; against ITK, 1 to 10 µM. The IC50 on LYN was over 10 µM. In addition, the “Btk occupancy in vivo” value on Btk [1] (10 mg/kg single oral dose) was “full occupancy”.

For `CC#CC(=O)N1CCCC[C@H]1c1nc(-c2ccc(Oc3cccc(OC)c3F)cc2)c2c(C)nccn12` [Example 5, (S)-1-(2-(1-(4-(2-Fluoro-3-methoxyphenoxy)phenyl)-8-methylimidazo[1,5-a]pyrazin-3-yl)piperidin-1-yl)but-2-yn-1-one], the “Btk occupancy in vivo” value on Btk [1] (10 mg/kg single oral dose) is on record as “full occupancy”.

On to `C=CC(=O)N1CCC[C@H]1c1nc(-c2ccc(Oc3cccc(OC)c3)cc2)c2cnccn12` [Example 16, (S)-1-(2-(1-(4-(3-methoxyphenoxy)phenyl)imidazo[1,5-a]pyrazin-3-yl)pyrrolidin-1-yl)prop-2-en-1-one], for which the IC50 at LCK is over 10 µM; at EGFR, 1 to 10 µM; against TEC, 0.1 to 1 µM; at BTK [2] (read-out: BTK IC50) it was under 0.01 µM; at BTK [2] (read-out: BTK Inhibition) it was under 0.01 µM; at ITK, 1 to 10 µM. Moreover, on LYN, the IC50 was over 10 µM.

Consider `CC#CC(=O)N1CC[C@@H](c2nc(-c3ccc(Oc4cccc(OC)c4F)cc3)c3cnccn23)C1` [Example 69, (R)-1-(3-(1-(4-(2-fluoro-3-methoxyphenoxy)phenyl)imidazo[1,5-a]pyrazin-3-yl)pyrrolidin-1-yl)but-2-yn-1-one], for which the IC50 at BTK [2] (read-out: BTK Inhibition) is under 0.01 µM.

Turning to `CC#CC(=O)N1CCCC[C@H]1c1nc(-c2ccc(C(=O)Nc3ccccn3)cc2)c2c(C(F)(F)F)nccn12` [Example 200, (S)-4-(3-(1-(but-2-ynoyl)piperidin-2-yl)-8-(trifluoromethyl)imidazo [1,5-a]pyrazin-1-yl)-N-(pyridin-2-yl)benzamide], the IC50 on BTK [2] (read-out: BTK Inhibition) is over 10 µM.

The record behind these values is patent US10933063B2 (priority 2017, dated 2021).
